US11357742B2, “Methods for treating cancer” (X4 Pharmaceuticals, Inc., priority 2015, dated 2022)

Tests used:
[1] = test system: renal cell carcinoma (RCC) xenografts; conditions: cited from earlier work
[2] = oral; see current product label; cited from earlier work
mir-30a and mir-30c = conditions: 786-0 xenograft tumor, after 8 days of treatment
Source text: Data is presented as mir-30a or mir-30c expression relative to the mean control value (left side) and relative HIF-2α RNA expression.

[3] = cited from earlier work
[4] = test system: 786-0 and A498 RCC xenografts; assay: Murine models with human RCC cell line xenografts (tumor size, IHC, IF, flow cytometry); type: in vivo, mice; conditions: 786-0 and A498 xenografts
Procedure: With each of the human cell lines, 1×10^7 tumor cells were implanted subcutaneously in the flanks of 36 nude/beige mice and tumors allowed to grow to roughly 7 mm in diameter. […] Therefore, on day 7, the mice were sacrificed and the tumors were measured and immediately excised and divided into three parts. One part of each tumor was paraffin-embedded for dual color immunofluorescence. Another part was mechanically disaggregated and treated with collagenase/DNAse to generate a single cell suspension for flow cytometry. The third part was frozen for future pharmacokinetic analysis. Microscope slides were made from the paraffin-embedded tumor tissue, which were stained with antibodies against CD11b, Gr-1, and FAP. The number of infiltrating CD11b+/Gr-1+ MDSC and FAP+ fibroblasts present in the tumor tissue was then determined by immunofluorescence (IF) as previously described (1).
The disaggregated tumor specimens were analyzed for CD11b+/Gr-1+ MDSC and FAP+ fibroblasts by flow cytometry. The fraction of both populations expressing CXCR4 were also determined. […] One part was disaggregated into single cell suspensions and analyzed by flow cytometry as above for MDSC. […] Finally, a bone marrow (BM) sample was generated by extruding marrow from an excised femur with a syringe filled with saline and analyzed by flow cytometry for MDSC.

[5] = concurrent administration with sunitinib

Structure (SMILES) | development of sunitinib resistance [1, 5] | influx of MDSC [1, 5] | HIF-2 expression ([1]; in vivo) | effect of food on absorption [2] | mir-30a and mir-30c expression (mir-30a and mir-30c) | partition coefficient (n-octanol/water) [3] | effects on tumor growth ([4]; nude/beige mice, day 7, axitinib 30 mg/kg daily by gavage) | MDSC infiltration of tumors ([4]; CD11b+/Gr-1+ cells)
CC(C)(C)C[C@H]1N[C@@H](C(=O)NCC[C@H](O)CO)[C@H](c2ccc(F)c(Cl)c2)[C@@]12C(=O)Nc1cc(Cl)c(F)cc12 [MI-319] | prevented | prevented | suppresses | – | – | – | – | –
CNC(=O)c1ccccc1Sc1ccc2c(/C=C/c3ccccn3)n[nH]c2c1 [axitinib, N-methyl-2-[3-((E)-2-pyridin-2-yl-vinyl)-1H-indazol-6-ylsulfanyl]-benzamide] | – | – | – | not altered by food | suppressed | 3.5 | no | extensive MDSC infiltration
